Assay results reported in patent US11566047B2, “Peptide or pharmaceutically acceptable salt thereof, or prodrug thereof” (TOKYO UNIVERSITY OF PHARMACY & LIFE SCIENCES, priority 2016, dated 2023).
R111 = not defined here

Test system: anterior tibial muscles of mdx mice
Test: Influence on anterior tibial muscles of Duchenne muscular dystrophy model mdx mice (muscle weight)
Assay type: in vivo
Settings: mdx male mice aged 5 weeks; 40 μL of 0.75 mM intramuscular, again after 2 weeks; necropsy after further 4 weeks; vs saline leg; average of three mice
Experimental: Regarding PDM-46 prepared in Synthesis Example 18, evaluation was performed by the following method in order to check the muscle mass increasing effect in vivo.
PDM-46 was dissolved in saline to become 0.75 mM. 40 μL of PDM-46 was intramuscularly administered into the left leg anterior tibial muscles of anesthetized mdx male mice aged 5 weeks (purchased from CLEA Japan, Inc.) (as a control, 40 μL of saline was intramuscularly administered into the right leg anterior tibial muscles). After 2 weeks, the same amount of PDM-46 was administered to the same site again. After further 4 weeks, the mice were subjected to necropsy, the anterior tibial muscles were excised from the both legs, and the weight thereof was measured.

R^111-WYIESIKIQIISKLRL-NH2 (R111-WYIESIKIQIISKLRL-NH2; reading uncertain; also: printed as R^111-WYIESIKIQIISKLRL-NH2) [PDM-46, R^111 = group of Formula (4), drawing 8]
increase of muscle mass of anterior tibial muscles in terms of weight: about 13%
